Test results as given in the supplement of paper PMC8497498.

Legend:
[1] = system: primary human hepatocytes; assay: CC20 hepatic nuclei (20% reduction); higher = less toxic
Summary of the method: (§1)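 Readouts of schizont growth area, hypnozoite count and hepatic nuclei came from high-content imaging of fixed, immunostained wells, normalised to DMSO and positive-control wells. The wells held primary human hepatocytes infected with P. vivax sporozoites from patient-isolate-fed mosquitoes. Compounds were delivered as 40 nL pin transfers from 1000× DMSO plates at 8 points (10 uM[…]) or 12 points in duplicate (50 uM–280 pM). Potency, maximum inhibition and nuclei-loss cytotoxicity were obtained from CDD Vault curves of the highest-quality run after toxic bell-shaped points were dropped.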

[2] = system: Plasmodium vivax liver stage (primary human hepatocyte culture)
Summary of the method: as §1

[3] = system: Plasmodium falciparum 3D7 asexual blood stage; assay: EC50 asexual blood stage growth; settings: serum: 0.5% AlbuMAX
Experimental: (§2)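 The Reference Compound Library was tested by 10-point 3-fold dose response against P. cynomolgi Berok K4 asexual blood stages (SYBR proliferation assay, mefloquine background control). Culture medium contained 0.5% AlbuMAX or 20% M. fascicularis serum. P. falciparum 3D7 was tested in a 72-h SYBR Green assay with 0.5% AlbuMAX. Values are geometric mean EC50 over independent experiments; 10 uM is the top dose.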

[4] = system: Plasmodium cynomolgi Berok K4 asexual blood stage; assay: EC50 asexual blood stage growth
Experimental: as §2

[5] = system: Plasmodium vivax liver stage (primary human hepatocyte culture); assay: maximum inhibition of schizont net growth area; higher = more active
Summary of the method: as §1

[6] = P. vivax isolate: Pv360, hepatocyte lot: UBV, assay mode: Prophylactic, 6-day
[7] = serum: 20% M. fascicularis serum
[8] = P. vivax isolate: Pv914, hepatocyte lot: BGW, assay mode: Prophylactic, 6-day
[9] = P. vivax isolate: Pv360, hepatocyte lot: UBV, assay mode: Radical Cure, 8-day (treatment from day 5 post-infection)
[10] = P. vivax isolate: Pv796, hepatocyte lot: BGW, assay mode: Radical Cure, 8-day (treatment from day 5 post-infection)
[11] = P. vivax isolate: Pv992, hepatocyte lot: BGW, assay mode: Prophylactic, 6-day
[12] = P. vivax isolate: Pv668, hepatocyte lot: BGW, assay mode: Radical Cure, 8-day (treatment from day 5 post-infection)

## COC1OC2OC3(C)CCC4C(C)CCC(C1C)C24OO3 (stereo unspecified) [Artemether]
[1]; [6]
  CC20 hepatic nuclei: > 10 µM
[2]; [6]
  EC50 hypnozoite quantity: > 10 µM
[3]
  EC50 asexual blood stage growth: 0.0575 µM
[4]; serum: 0.5% AlbuMAX
  EC50 asexual blood stage growth: 0.0068 µM
[4]; [7]
  EC50 asexual blood stage growth: 0.0065 µM
[5]; [6]
  maximum inhibition: 60.4%

## COc1cc(NC(C)CCCN)c2nccc(C)c2c1Oc1ccc(Cl)c(Cl)c1 (stereo unspecified) [NPC-1161B]
[1]; [8]
  CC20 hepatic nuclei: > 10 µM
[2]; [8]
  EC50 hypnozoite quantity: > 10 µM
  EC50 schizont net growth area: > 0.37 µM
[3]
  EC50 asexual blood stage growth: 2.86 µM
[4]; serum: 0.5% AlbuMAX
  EC50 asexual blood stage growth: 2.76 µM
[4]; [7]
  EC50 asexual blood stage growth: 8.2 µM
[5]; [8]
  maximum inhibition: 91.9%

## Clc1ccc2c(N[C@H]3CCCC[C@@H]3Nc3ccnc4cc(Cl)ccc34)ccnc2c1 [Ro 47-7737]
[1]; [9]
  CC20 hepatic nuclei: > 10 µM
[1]; [8]
  CC20 hepatic nuclei: > 3.33 µM
[2]; [9]
  EC50 hypnozoite quantity: > 10 µM
  EC50 schizont net growth area: > 3.33 µM
[2]; [8]
  EC50 hypnozoite quantity: > 3.33 µM
  EC50 schizont net growth area: > 3.33 µM
[3]
  EC50 asexual blood stage growth: 0.002 µM
[4]; serum: 0.5% AlbuMAX
  EC50 asexual blood stage growth: 0.0042 µM
[4]; [7]
  EC50 asexual blood stage growth: 0.0036 µM
[5]; [9]
  maximum inhibition: 70.6%
[5]; [8]
  maximum inhibition: 99%

## CC(C)N=C(N)N=C(N)Nc1ccc(Cl)c(Cl)c1 [Chlorproguanil]
[1]; [8]
  CC20 hepatic nuclei: > 10 µM
[2]; [8]
  EC50 hypnozoite quantity: > 10 µM
  EC50 schizont net growth area: > 1.11 µM
[3]
  EC50 asexual blood stage growth: 5.34 µM
[4]; serum: 0.5% AlbuMAX
  EC50 asexual blood stage growth: 8.45 µM
[4]; [7]
  EC50 asexual blood stage growth: > 10 µM
[5]; [8]
  maximum inhibition: 98.1%

## C=C(NC(=O)C(=C)NC(=O)c1csc(C2=NC3c4csc(n4)C4NC(=O)c5csc(n5)C(C(C)(O)C(C)O)NC(=O)C5CSC(=N5)C(=CC)NC(=O)C(C(C)O)NC(=O)c5csc(n5)C3(CC2)NC(=O)C(C)NC(=O)C(=C)NC(=O)C(C)NC(=O)C(C(C)CC)NC2C=Cc3c(C(C)O)cc(nc3C2O)C(=O)OC4C)n1)C(N)=O (stereo unspecified) [Thiostrepton]
[1]; [9]
  CC20 hepatic nuclei: > 10 µM
[1]; [8]
  CC20 hepatic nuclei: > 3.33 µM
[2]; [9]
  EC50 hypnozoite quantity: > 10 µM
  EC50 schizont net growth area: > 3.33 µM
[2]; [8]
  EC50 hypnozoite quantity: 4.04 µM
  EC50 schizont net growth area: 2.39 µM
[3]
  EC50 asexual blood stage growth: > 10 µM
[4]; serum: 0.5% AlbuMAX
  EC50 asexual blood stage growth: 3.93 µM
[4]; [7]
  EC50 asexual blood stage growth: 9.13 µM
[5]; [9]
  maximum inhibition: 80.2%
[5]; [8]
  maximum inhibition: 99.1%

## CCC1OC(=O)C(C)C(OC2CC(C)(OC)C(O)C(C)O2)C(C)C(OC2OC(C)CC(N(C)C)C2O)C(C)(O)CC(C)CN(C)C(C)C(O)C1(C)O (stereo unspecified) [Azithromycin]
[1]; [8]
  CC20 hepatic nuclei: > 10 µM
[2]; [8]
  EC50 hypnozoite quantity: > 10 µM
  EC50 schizont net growth area: > 0.37 µM
[3]
  EC50 asexual blood stage growth: > 10 µM
[4]; serum: 0.5% AlbuMAX
  EC50 asexual blood stage growth: > 10 µM
[4]; [7]
  EC50 asexual blood stage growth: > 10 µM
[5]; [8]
  maximum inhibition: 63.3%

## N#Cc1cc(NC(=O)C2c3ccccc3C(=O)N(CC(F)(F)F)C2c2cccnc2)ccc1F (stereo unspecified) [SJ733]
[1]; [10]
  CC20 hepatic nuclei: > 50 µM
[2]; [10]
  EC50 hypnozoite quantity: > 50 µM
[3]
  EC50 asexual blood stage growth: 0.106 µM
[4]; serum: 0.5% AlbuMAX
  EC50 asexual blood stage growth: 0.538 µM
[4]; [7]
  EC50 asexual blood stage growth: 0.293 µM
[5]; [10]
  maximum inhibition: 56.8%

## COc1cc2[nH]c(C)c(-c3ccc(Oc4ccc(OC(F)(F)F)cc4)cc3)c(=O)c2cc1Cl [ELQ-300]
[1]; [8]
  CC20 hepatic nuclei: > 10 µM
[2]; [8]
  EC50 hypnozoite quantity: > 1.11 µM
  EC50 schizont net growth area: 0.0576 µM
[3]
  EC50 asexual blood stage growth: 0.0471 µM
[4]; serum: 0.5% AlbuMAX
  EC50 asexual blood stage growth: 0.042 µM
[4]; [7]
  EC50 asexual blood stage growth: 0.0033 µM
[5]; [8]
  maximum inhibition: 97.9%

## CCN(CC)Cc1cc(Nc2ccnc3cc(Cl)ccc23)ccc1O [Amodiaquine]
[1]; [11]
  CC20 hepatic nuclei: > 10 µM
[2]; [11]
  EC50 hypnozoite quantity: > 10 µM
  EC50 schizont net growth area: 0.0141 µM
[3]
  EC50 asexual blood stage growth: 0.006 µM
[4]; serum: 0.5% AlbuMAX
  EC50 asexual blood stage growth: 0.0198 µM
[4]; [7]
  EC50 asexual blood stage growth: 0.0081 µM
[5]; [11]
  maximum inhibition: 87.2%

## COc1ccc2nc3cc(Cl)ccc3c(Nc3cc(CN4CCCC4)c(O)c(CN4CCCC4)c3)c2n1 [Pyronaridine]
[1]; [8]
  CC20 hepatic nuclei: 7.91 µM
[2]; [8]
  EC50 hypnozoite quantity: > 3.33 µM
  EC50 schizont net growth area: > 3.33 µM
[3]
  EC50 asexual blood stage growth: 0.005 µM
[4]; serum: 0.5% AlbuMAX
  EC50 asexual blood stage growth: 0.0035 µM
[4]; [7]
  EC50 asexual blood stage growth: 0.004 µM
[5]; [8]
  maximum inhibition: 99.4%

## O[C@H](c1cc(C(F)(F)F)nc2c(C(F)(F)F)cccc12)[C@@H]1CCCCN1 [(+)-Mefloquine]
[1]; [12]
  CC20 hepatic nuclei: 23.3 µM
[1]; [8]
  CC20 hepatic nuclei: 13.2 µM
[2]; [12]
  EC50 hypnozoite quantity: > 50 µM
[2]; [8]
  EC50 hypnozoite quantity: 14.8 µM
  EC50 schizont net growth area: 5.73 µM
[3]
  EC50 asexual blood stage growth: 0.0179 µM
[4]; serum: 0.5% AlbuMAX
  EC50 asexual blood stage growth: 0.0312 µM
[4]; [7]
  EC50 asexual blood stage growth: 0.06 µM
[5]; [12]
  maximum inhibition: 93.9%
[5]; [8]
  maximum inhibition: 98.7%
